Results: patent EP3974434B1, “MACROLIDE DERIVATIVES, PREPARATION METHOD AND APPLICATION THEREOF” (Zhejiang Hisun Pharmaceutical Co., Ltd., priority 2019, dated 2020)

System: H2228 (human lung cancer cells)
Assay: Cell proliferation assay (CellTiter-Glo), H2228
Assay type: cell-based
Details: NCI-H2228, 72 hours, EML4-ALK fusion
Source text: The following method was used to determine the effects of the compounds of the present invention on cell proliferation. H2228 cells (containing EML4-ALK fusion) were purchased from Cell Resource Center of Shanghai Institutes for Biological Sciences, Chinese Academy of Sciences. KARPAS-299 cells (containing NPM-ALK fusion) were purchased from Nanjing COBIOER Biotechnology Co., Ltd. The above two cell lines were used to determine the inhibition of the compounds on cell activities. The cells were cultured in an RPMI 1640 medium containing 10% fetal bovine serum, 100 U penicillin, 100 µg/mL streptomycin, and 1 mM Sodium Pyruvate. The cells were cultured in a 5% CO2 incubator at 37°C. The activity of the cells was determined by CellTiter-Glo® Luminescent Cell Viability Assay kit (Promega, article number: G7573).
The experimental methods were operated according to the steps in the kit instruction, and were briefly described as follows: a test compound was first dissolved in DMSO to prepare a storage solution, and then diluted in gradient with the corresponding cell culture medium to prepare a test sample. […] After the culture, 50 µL of CellTiter-Glo detection solution was added to each well, shaken for 5 minutes, and then stood for 10 minutes, and the luminescence values of each well were read on the microplate reader using a Luminance mode. […]

C[C@H]1Nc2ccn3ncc(c3n2)C(=O)NC[C@@]2(C)Cc3cc(F)cc1c3O2 [Example 8, (3R,11R)-6-fluoro-3,11-dimethyl-10-oxa-2,13,17,1 8,21-pentaazapentacyclo[13.5.2.1^8,11.0^4,9.0^18,22]tric osa-1(21),4,6,8,15(22),16,19-heptaen-14-one] showed an IC50 of 164 nM.
